Laboratory results reported in US20020115728A1, “Compositions and methods for treating cardiovascular disorders” (priority 2000, published 2002).

Experiments:
α-tocopheroxyl radical = assay: Tocopheroxyl radical attenuating ability (TRAA); type: biochemical; conditions: kobs with (+) or without (−) test compound
[1] = test system: tocopherol-mediated peroxidation (TMP); assay: Anti-TMP index; type: biochemical
[2] = test system: New Zealand White rabbits with arterial balloon injury; assay: Serum and plasma lipid profile and antioxidants; type: in vivo
Description: (§1) Twelve rabbits were initially fed standard rabbit chow ad libitum for two weeks, before commencement of the nine weeks intervention study. Six rabbits were fed 100 g per day of standard rabbit chow without (control) or with 0.02% PDA474. At the end of week three, the abdominal aorta and right iliac artery were injured by inserting a 3F Fogarty catheter into the right femoral artery and advancing it by about 25 cm to a position just above the diaphragm. The balloon was then inflated with 0.2 mL of saline, and the catheter pulled back three times. Following injury rabbits were placed back onto their respective diet for another six weeks. During the nine weeks, blood was taken from the marginal ear vein of non-fasted rabbits each week for measuring plasma PDA474 and its metabolites. At the end of week nine, the aorta, iliofemoral arteries and a portion of various tissues (liver, kidney, heart, muscle, spleen and abdominal fat) were harvested.

[3] = PDA474 and metabolite levels in plasma, aorta and major tissues; type: in vivo, New Zealand White rabbits
Description: as §1

[4] = test system: New Zealand White rabbits with arterial balloon injury; assay: Liver function (serum AST, ALT, GGT); type: in vivo; conditions: for Serum ALT / Serum AST / Serum GGT: 0.02% PDA474
Description: as §1

[5] = test system: intimal thickening in rabbit aorta after arterial balloon injury; assay: Histological evaluation of aortic lesion formation after arterial balloon injury; type: in vivo, New Zealand White rabbits; conditions: rabbits, 0.02% PDA474, six weeks after ABI
Description: as §1
The lower abdominal aorta and iliofemeral arteries were pre-perfusion-fixed with 4% buffered formalin at a constant physiological pressure (˜100 mmHg) before removal and placement in 4% buffered formalin for further fixation for 12 h at room temperature. Two parts of the abdominal aorta were taken for lesion assessment. One part (referred to as A1) was located just above 3rd lumber artery close to the lumber branches, and the other part (referred to as A3) represented the central part between 3rd and 4th lumber arteries, where there are few branches. A1 and A3 specimens were embedded in paraffin and two sections (200 μm apart) were taken from each specimen and stained with Verhoeff hematoxylin.
The intima, media and intima/media ratio (IMR) were calculated by tracing the intimal and medial areas and determining their respective total pixel numbers. High IMR indicate large lesions. In addition, the perimeter of the external elastic lamina and the lumen were quantified using Scion Image Software to assess the extent of vessel remodeling.

[6] = test system: cGMP production by aortic rings; assay: cGMP in homogenates of aortic rings (radioimmunoassay); type: in vivo, New Zealand White rabbits; conditions: aortic rings of PDA474-treated rabbits, 1 μM ACh
Description: cGMP in the homogenates of aortic ring was determined by a specific radioimmunoassay. […] SNP (1 μM) was used as a positive and buffer vehicle as a negative control. The cGMP content was then determined as described in the commercial assay kit (Cayman Chemical), and results expressed per tissue weight or protein.

[7] = test system: abdominal aortic rings of balloon-injured rabbits; assay: Aortic ring study (response to NE, ACh, SNP); type: in vivo, New Zealand White rabbits
Description: Following the intervention, the abdominal aorta was removed carefully, cleared of adhering fat and connective tissue, and then cut into 2 mm-wide transverse rings just under second lumbar artery (about 9 cm distal to the common iliac artery and about 5 cm below the celiac artery). This portion of the aorta contains few branches. […] Before the start of the experiments, aortic rings were allowed to equilibrate for one hour under a resting tension of 2.5 g, followed by three washes and re-equilibration of the rings between addition of drugs inducing vaso-response. At the end of each experiment, the aortic ring was weight. The vascular function was assessed in three parts:
2) The response to the endothelium-dependent vasodilator, acetylcholine (ACh). Rings were pre-constricted with PE corresponding to a dose that gave half-maximum contraction (EC50) as calculated from the dose-response curve to NE. ACh (10^−9-10^−5 M) was added after reaching a constant contriction.
3) The response to the endothelium-independent vasodilator, sodium nitroprusside (SNP) (10^−9-10^−5 M) was determined to assess vascular smooth muscle cell function.

[8] = 0.02% PDA474, Week 0 (baseline)

Cc1cc(C(C)(C)C)c(O)c(C(C)(C)C)c1 [BHT]
TRAA (decay of tocopheroxyl radical; kobs(+)/kobs(−)) (α-tocopheroxyl radical): Immediate decay
Anti-TMP index [1]: 8-10

CC(C)(C)c1cc(SSc2cc(C(C)(C)C)c(O)c(C(C)(C)C)c2)cc(C(C)(C)C)c1O [PDA474]
Plasma Ascorbate [2, 8]: 34.56 ± 4.36 µmol/L
Plasma Ch18:2 [2, 8]: 0.19 ± 0.02 mmol/L
Plasma Ch20:2 [2, 8]: 0.01 ± 0.00 mmol/L
Plasma Free Chol [2, 8]: 0.49 ± 0.05 mmol/L
Plasma Total Chol [2, 8]: 0.69 ± 0.07 mmol/L
Plasma Urate [2, 8]: 5.56 ± 0.43 µmol/L
Plasma a-TOH [2, 8]: 4.40 ± 0.24 µmol/L
Serum HDL Chol [2, 8]: 0.58 ± 0.07 mmol/L
Serum Triglycerides [2, 8]: 0.95 ± 0.11 mmol/L
Plasma Ascorbate ([2]; 0.02% PDA474, Week 3 (ABI)): 44.01 ± 5.29 µmol/L
Plasma Ch18:2 ([2]; 0.02% PDA474, Week 3 (ABI)): 0.19 ± 0.02 mmol/L
Plasma Ch20:2 ([2]; 0.02% PDA474, Week 3 (ABI)): 0.08 ± 0.00 mmol/L
Plasma Free Chol ([2]; 0.02% PDA474, Week 3 (ABI)): 0.42 ± 0.03 mmol/L
Plasma Total Chol ([2]; 0.02% PDA474, Week 3 (ABI)): 0.62 ± 0.03 mmol/L
Plasma Urate ([2]; 0.02% PDA474, Week 3 (ABI)): 5.86 ± 0.65 µmol/L
Plasma a-TOH ([2]; 0.02% PDA474, Week 3 (ABI)): 5.02 ± 0.50 µmol/L
Serum Cholesterol ([2]; 0.02% PDA474, Week 3 (ABI)): 0.77 ± 0.14 mmol/L
Serum HDL Chol ([2]; 0.02% PDA474, Week 3 (ABI)): 0.50 ± 0.09 mmol/L
Serum Triglycerides ([2]; 0.02% PDA474, Week 3 (ABI)): 0.98 ± 0.15 mmol/L
Plasma Ch18:2 ([2]; 0.02% PDA474, Week 6): 0.25 ± 0.10 mmol/L
Plasma Ch20:2 ([2]; 0.02% PDA474, Week 6): 0.02 ± 0.01 mmol/L
Plasma Free Chol ([2]; 0.02% PDA474, Week 6): 0.43 ± 0.11 mmol/L
Plasma Total Chol ([2]; 0.02% PDA474, Week 6): 0.70 ± 0.21 mmol/L
Plasma a-TOH ([2]; 0.02% PDA474, Week 6): 4.76 ± 0.64 µmol/L
Serum Cholesterol ([2]; 0.02% PDA474, Week 6): 1.15 ± 0.51 mmol/L
Serum HDL Chol ([2]; 0.02% PDA474, Week 6): 0.51 ± 0.15 mmol/L
Serum Triglycerides ([2]; 0.02% PDA474, Week 6): 0.93 ± 0.08 mmol/L
Plasma Ascorbate ([2]; 0.02% PDA474, Week 9 (cull)): 46.51 ± 5.49 µmol/L
Plasma Ch18:2 ([2]; 0.02% PDA474, Week 9 (cull)): 0.16 ± 0.02 mmol/L
Plasma Ch20:2 ([2]; 0.02% PDA474, Week 9 (cull)): 0.04 ± 0.00 mmol/L
Plasma Free Chol ([2]; 0.02% PDA474, Week 9 (cull)): 0.30 ± 0.03 mmol/L
Plasma Total Chol ([2]; 0.02% PDA474, Week 9 (cull)): 0.46 ± 0.04 mmol/L
Plasma Urate ([2]; 0.02% PDA474, Week 9 (cull)): 5.24 ± 1.25 µmol/L
Plasma a-TOH ([2]; 0.02% PDA474, Week 9 (cull)): 3.60 ± 0.31 µmol/L
Serum Cholesterol ([2]; 0.02% PDA474, Week 9 (cull)): 0.67 ± 0.06 mmol/L
Serum HDL Chol ([2]; 0.02% PDA474, Week 9 (cull)): 0.42 ± 0.04 mmol/L
Serum Triglycerides ([2]; 0.02% PDA474, Week 9 (cull)): 0.97 ± 0.13 mmol/L
hypocholesterolemic effect ([2]; rabbits, 0.02% PDA474, 9 weeks): no hypocholesterolemic effect
Serum Cholesterol ([2]; rabbits, chow with 0.02% PDA474, Week 0 (baseline)): 1.13 ± 0.15 mmol/L
Fat PDA474 level ([3]; 0.02% PDA474, 9 weeks, abdominal fat): 1.99 ± 0.40 nmol/mg P
Aorta PDA474 level ([3]; 0.02% PDA474, 9 weeks, aorta): 0.59 ± 0.12 nmol/mg P
Heart PDA474 level ([3]; 0.02% PDA474, 9 weeks, heart): 0.65 ± 0.43 nmol/mg P
Kidney PDA474 level ([3]; 0.02% PDA474, 9 weeks, kidney): 0.26 ± 0.06 nmol/mg P
Liver PDA474 level ([3]; 0.02% PDA474, 9 weeks, liver): 7.30 ± 2.82 nmol/mg P
Muscle PDA474 level ([3]; 0.02% PDA474, 9 weeks, muscle): 0.17 ± 0.06 nmol/mg P
Spleen PDA474 level ([3]; 0.02% PDA474, 9 weeks, spleen): 0.30 ± 0.13 nmol/mg P
concentration at 9 weeks ([3]; New Zealand White, rabbit, oral, 0.02 % in chow, rabbits, 0.02% PDA474 in chow, 9 weeks, plasma, read-out: Plasma PDA474 level): 370 ± 40 nM
time until plasma concentrations of PDA474 reached steady state ([3]; rabbits, chow with 0.02% PDA474): 1˜2 weeks
amount of the administered PDA474 reaching the circulation ([3]; rabbits, chow with 0.02% PDA474, estimated): < 1%
Serum ALT ([4]; Week 0 (baseline)): 51.17 ± 3.08 U/L
Serum AST ([4]; Week 0 (baseline)): 28.17 ± 2.65 U/L
Serum GGT ([4]; Week 0 (baseline)): 11.50 ± 1.06 U/L
Serum ALT ([4]; Week 3 (ABI)): 76.00 ± 8.13 U/L
Serum AST ([4]; Week 3 (ABI)): 63.33 ± 23.47 U/L
Serum GGT ([4]; Week 3 (ABI)): 12.33 ± 2.29 U/L
Serum ALT ([4]; Week 6): 72.83 ± 5.19 U/L
Serum AST ([4]; Week 6): 33.83 ± 8.79 U/L
Serum GGT ([4]; Week 6): 13.67 ± 0.76 U/L
Serum ALT ([4]; Week 9 (cull)): 100.67 ± 10.43 U/L
Serum AST ([4]; Week 9 (cull)): 69.67 ± 14.34 U/L
Serum GGT ([4]; Week 9 (cull)): 12.33 ± 0.99 U/L
effect on liver function ([4]; rabbits, 0.02% PDA474, 9 weeks): did not affect liver function
intima-to-media ratio (IMR), Section A1 of the abdominal aorta, vs control [5]: significantly lower
media areas of abdominal aorta vs control [5]: significantly increased
vascular remodeling (lumen area, EEL perimeter) [5]: did not affect
tissue cGMP concentrations in response to ACh vs control [6]: significantly increased
muscle tone (g/mg tissue) vs control aortic rings ([7]; NE-induced constriction, PDA474-treated rabbits): nearly twice as high
SNP-induced relaxation vs control ([7]; rings from PDA474-treated rabbits): comparable
ACh-induced relaxation of aortic rings ([7]; rings from PDA474-treated rabbits, pre-constricted with NE at EC50, maximal response at ˜10^−5M ACh): 61 % relaxation
NE-induced constriction of abdominal aortic rings vs control ([7]; rings from balloon-injured rabbits fed 0.02% PDA474): significantly increased

diphenoquinone [H 330/68]
TRAA (decay of tocopheroxyl radical; kobs(+)/kobs(−)) (α-tocopheroxyl radical): kobs(+)/kobs(−)˜1
Anti-TMP index [1]: 100
